Marks after values point to notes of the source that are not given here.
What was measured:
[1] = system: lyase from M. costata; test: Relative degrading rates of the lyase from M. costata towards various substrates; type: biochemical, Morchella costata; conditions: for degradation (AF detectable on TLC plates): incubated for 48 h; for activity (maltotetraose as 100%): purified fungal lyase, section B.1.4.3
[2] = system: lyase from M. vulgaris; test: Relative degrading rates of the lyase from M. vulgaris towards various substrates; type: biochemical, Morchella vulgaris; conditions: for degradation (AF detectable on TLC plates): incubated for 48 h; for Activity (%) (maltotetraose = 100%): all substrates 10 mg ml^−1
Protocol: The activity observed for maltotetraose is treated as 100%. The final concentration of all substrates was 10 mg ml^−1.

[3] = system: α-1,4-glucan lyase from the parasite-free red seaweed Gracilariopsis lemaneiformis; test: Degradation rates of the Californian algal lyase on various substrates; type: biochemical; conditions: for AF released: substrate 10 mg/ml, pH 3.8, 40 min at 45° C.
Protocol: Reaction conditions: The reaction mixture contained 10 mM of HOAc-NaOAc (pH 3.8). The substrate concentration was 10 mg/ml. The final volume was 100 ul after the addition of lyase and water. The reaction time was 40 min at 45° C.

[4] = system: α-1,4-glucan lyase; test: Activity of the lyase towards maltosaccharides (summary); type: biochemical
[5] = system: lyase purified from the fungal infected algae; test: Effect of alcohols on activity and stability of the lyase (AF yield); type: biochemical, fungal infected Gracilariopsis lemaneiformis
Protocol: 1-propanol, 2-propanol and 1-butanol were tested at the following concentrations (0%, 1%, 5% and 10%).
Ethanol was tested at the following concentrations (0, 1, 3, 5, 7, 9, 11, 13, 15%).

[6] = system: lyase from the fungal infected Gracilariopsis lemaneiformis; test: Reaction rates with glycogen and amylopectin, lyase from fungal infected Gracilariopsis lemaneiformis; type: biochemical

## OC[C@H]1O[C@H](OC[C@H]2O[C@H](O[C@H]3[C@H](O)[C@@H](O)C(O)O[C@@H]3CO)[C@H](O)[C@@H](O)[C@@H]2O)[C@H](O)[C@@H](O)[C@@H]1O (stereo partly drawn) [panose]
[1]
  degradation (AF detectable on TLC plates): no AF detectable
[2]
  degradation (AF detectable on TLC plates): no AF detectable
[3]
  degradation by the lyase: slow rate

## OC[C@H]1O[C@H](O[C@@H]2[C@@H](O)[C@@H](O[C@@H]3[C@@H](O)[C@@H](O[C@H]4[C@H](O)[C@@H](CO)OC(O)[C@@H]4O)O[C@H](CO)[C@H]3O)O[C@H](CO)[C@H]2O)[C@H](O)[C@@H](O)[C@@H]1O (stereo partly drawn) [nigerotetraose]
[1]
  degradation (AF detectable on TLC plates): no AF detectable
[2]
  degradation (AF detectable on TLC plates): no AF detectable
[3]
  degradation by the lyase: not able to degrade

## OC[C@H]1O[C@H](O[C@H]2[C@H](O)[C@@H](O)[C@@H](O[C@H]3[C@H](O)[C@@H](O)[C@@H](O[C@H]4[C@H](O)[C@@H](O)[C@@H](O[C@H]5[C@H](O)[C@@H](O)C(O)O[C@@H]5CO)O[C@@H]4CO)O[C@@H]3CO)O[C@@H]2CO)[C@H](O)[C@@H](O)[C@@H]1O (stereo partly drawn) [Maltopentaose, maltopentaose]
[1]; substrate 2 mg/ml
  relative degrading rate (maltotetraose = 100%): 107.1%
[1]; substrate 4 mg/ml
  relative degrading rate (maltotetraose = 100%): 100.1%
[1]; substrate 10 mg/ml
  relative degrading rate (maltotetraose = 100%): 99.7%
[4]
  lyase activity towards maltosaccharide: highest activity
[2]
  Activity (%) (maltotetraose = 100%): 79.3%
[3]
  AF released: 674 nmol

## OC[C@H]1O[C@@H]2O[C@H]3[C@H](O)[C@@H](O)[C@@H](O[C@H]4[C@H](O)[C@@H](O)[C@@H](O[C@H]5[C@H](O)[C@@H](O)[C@@H](O[C@H]6[C@H](O)[C@@H](O)[C@@H](O[C@H]7[C@H](O)[C@@H](O)[C@@H](O[C@H]8[C@H](O)[C@@H](O)[C@@H](O[C@H]9[C@H](O)[C@@H](O)[C@@H](O[C@H]1[C@H](O)[C@H]2O)O[C@@H]9CO)O[C@@H]8CO)O[C@@H]7CO)O[C@@H]6CO)O[C@@H]5CO)O[C@@H]4CO)O[C@@H]3CO [gama-cyclodextrin]
[1]
  degradation (AF detectable on TLC plates): no AF detectable
[2]
  degradation (AF detectable on TLC plates): no AF detectable
[3]
  degradation by the lyase: not able to degrade

## O=[N+]([O-])c1ccc(OC2OC(CO)C(OC3OC(CO)C(OC4OC(CO)C(OC5OC(CO)C(OC6OC(CO)C(OC7OC(CO)C(OC8OC(CO)C(O)C(O)C8O)C(O)C7O)C(O)C6O)C(O)C5O)C(O)C4O)C(O)C3O)C(O)C2O)cc1 (stereo not drawn)
[1]
  degradation by the fungal lyase: failed to degrade
  degradation (AF detectable on TLC plates): no AF detectable
[2]
  degradation (AF detectable on TLC plates): no AF detectable

## O=[N+]([O-])c1ccc(O[C@H]2O[C@H](CO)[C@@H](O[C@H]3O[C@H](CO)[C@@H](O[C@H]4O[C@H](CO)[C@@H](O[C@H]5O[C@H](CO)[C@@H](O[C@H]6O[C@H](CO)[C@@H](O[C@H]7O[C@H](CO)[C@@H](O[C@H]8O[C@H](CO)[C@@H](O)[C@H](O)[C@H]8O)[C@H](O)[C@H]7O)[C@H](O)[C@H]6O)[C@H](O)[C@H]5O)[C@H](O)[C@H]4O)[C@H](O)[C@H]3O)[C@H](O)[C@H]2O)cc1 [p-nitrophenyl α-D-maltoheptaose]
[1]
  degradation by the fungal lyase: degraded

## OCC1OC(OC2C(CO)OC(OC3C(CO)OC(O)C(O)C3O)C(O)C2O)C(O)C(O)C1O (stereo not drawn) [Maltotriose, maltotriose]
[1]
  activity (maltotetraose as 100%): 56%
[1]; substrate 2 mg/ml
  relative degrading rate (maltotetraose = 100%): 40.6%
[1]; substrate 4 mg/ml
  relative degrading rate (maltotetraose = 100%): 58.6%
[1]; substrate 10 mg/ml
  relative degrading rate (maltotetraose = 100%): 56.0%
[4]
  lyase activity towards maltosaccharide: lower activity
[2]
  Activity (%) (maltotetraose = 100%): 49.8%
[3]
  AF released: 654 nmol

## OC[C@H]1O[C@H](O[C@H]2[C@H](O)[C@@H](O)[C@@H](O[C@H]3[C@H](O)[C@@H](O)[C@@H](O[C@H]4[C@H](O)[C@@H](O)[C@@H](O[C@H]5[C@H](O)[C@@H](O)[C@@H](O[C@H]6[C@H](O)[C@@H](O)C(O)O[C@@H]6CO)O[C@@H]5CO)O[C@@H]4CO)O[C@@H]3CO)O[C@@H]2CO)[C@H](O)[C@@H](O)[C@@H]1O (stereo partly drawn) [Maltohexaose, maltohexaose]
[1]
  activity (maltotetraose as 100%): 97%
[1]; substrate 2 mg/ml
  relative degrading rate (maltotetraose = 100%): 86.6%
[1]; substrate 4 mg/ml
  relative degrading rate (maltotetraose = 100%): 98.2%
[1]; substrate 10 mg/ml
  relative degrading rate (maltotetraose = 100%): 95.9%
[2]
  Activity (%) (maltotetraose = 100%): 92.4%
[3]
  AF released: 826 nmol

## CCO [Ethanol]
[5]; 3%, 10 days incubation
  increase of AF yield: 16%
[5]; 5%, 7 days incubation
  increase of AF yield: 12%
[5]; 7 days incubation, tested 0-15%
  optimal concentration for AF yield: 5%
[5]; 10 days incubation, tested 0-15%
  optimal concentration for AF yield: 3%

## pullulan
[1]
  degradation (AF detectable on TLC plates): no AF detectable
[2]
  degradation (AF detectable on TLC plates): no AF detectable
[3]
  degradation by the lyase: not able to degrade

## OC[C@H]1O[C@H](O[C@H]2[C@H](O)[C@@H](CO)OC(O)[C@@H]2O)[C@H](O)[C@@H](O)[C@@H]1O (stereo partly drawn) [nigerose]
[1]
  degradation (AF detectable on TLC plates): no AF detectable
[2]
  degradation (AF detectable on TLC plates): no AF detectable
[3]
  degradation by the lyase: slow rate

## Glycogen
[1]
  degradation by the fungal lyase: also degraded
[1]; substrate 10 mg/ml
  relative degrading rate (maltotetraose = 100%): 128.5%
[2]
  Activity (%) (maltotetraose = 100%): 183.3%
[6]; 25 C.
  ratio of relative reaction rates between Glycogen and Amylopectin (%): 72.4%
  relative reaction rates: 0.592^a
[6]; 30 C.
  ratio of relative reaction rates between Glycogen and Amylopectin (%): 79.8%
  relative reaction rates: 0.904^a
[6]; 45 C.
  ratio of relative reaction rates between Glycogen and Amylopectin (%): 158.9%
  relative reaction rates: 1.861^a
[3]
  substrate concentration at which half of the maximal velocity rate was reached: 3.37 mg/mL
  AF released: 592 nmol

## OC[C@H]1O[C@H](O[C@H]2[C@H](O)[C@@H](O)[C@@H](O[C@H]3[C@H](O)[C@@H](O)[C@@H](O[C@H]4[C@H](O)[C@@H](O)C(O)O[C@@H]4CO)O[C@@H]3CO)O[C@@H]2CO)[C@H](O)[C@@H](O)[C@@H]1O (stereo partly drawn) [Maltotetraose, maltotetraose]
[1]
  activity (maltotetraose as 100%): 100%
[1]; substrate 2 mg/ml
  relative degrading rate (maltotetraose = 100%): 100%
[1]; substrate 4 mg/ml
  relative degrading rate (maltotetraose = 100%): 100%
[1]; substrate 10 mg/ml
  relative degrading rate (maltotetraose = 100%): 100%
[4]
  lyase activity towards maltosaccharide: highest activity
[2]
  Activity (%) (maltotetraose = 100%): 100.0%
[3]
  AF released: 670 nmol

## OC[C@H]1O[C@@H]2O[C@H]3[C@H](O)[C@@H](O)[C@@H](O[C@H]4[C@H](O)[C@@H](O)[C@@H](O[C@H]5[C@H](O)[C@@H](O)[C@@H](O[C@H]6[C@H](O)[C@@H](O)[C@@H](O[C@H]7[C@H](O)[C@@H](O)[C@@H](O[C@H]1[C@H](O)[C@H]2O)O[C@@H]7CO)O[C@@H]6CO)O[C@@H]5CO)O[C@@H]4CO)O[C@@H]3CO [alpha-cyclodextrin]
[1]
  degradation (AF detectable on TLC plates): no AF detectable
[2]
  degradation (AF detectable on TLC plates): no AF detectable
[3]
  degradation by the lyase: not able to degrade

## Soluble starch
[1]; substrate 10 mg/ml
  relative degrading rate (maltotetraose = 100%): 92.9%
[2]
  Activity (%) (maltotetraose = 100%): 100.5%

## 1-butanol
[5]; 5%, after 3-day incubation
  increase of AF yield: 52%
[5]; tested at 0%, 1%, 5% and 10%
  optimal concentration for AF yield: 5%

## amylose
[1]
  degradation by the fungal lyase: also degraded

## OC[C@H]1O[C@@H]2O[C@H]3[C@H](O)[C@@H](O)[C@@H](O[C@H]4[C@H](O)[C@@H](O)[C@@H](O[C@H]5[C@H](O)[C@@H](O)[C@@H](O[C@H]6[C@H](O)[C@@H](O)[C@@H](O[C@H]7[C@H](O)[C@@H](O)[C@@H](O[C@H]8[C@H](O)[C@@H](O)[C@@H](O[C@H]1[C@H](O)[C@H]2O)O[C@@H]8CO)O[C@@H]7CO)O[C@@H]6CO)O[C@@H]5CO)O[C@@H]4CO)O[C@@H]3CO [beta-cyclodextrin]
[1]
  degradation (AF detectable on TLC plates): no AF detectable
[2]
  degradation (AF detectable on TLC plates): no AF detectable
[3]
  degradation by the lyase: not able to degrade

## OC[C@H]1O[C@H](OC[C@H]2OC(O)[C@H](O)[C@@H](O)[C@@H]2O)[C@H](O)[C@@H](O)[C@@H]1O (stereo partly drawn) [isomaltose]
[1]
  degradation (AF detectable on TLC plates): no AF detectable
[2]
  degradation (AF detectable on TLC plates): no AF detectable
[3]
  degradation by the lyase: not able to degrade

## CC(C)O [2-propanol]
[5]; 1%, after 10 days incubation
  increase of AF yield: 20%
[5]; tested at 0%, 1%, 5% and 10%
  optimal concentration for AF yield: 1%

## 1-propanol
[5]; 1% (v/v), 1 day
  AF yield: 80 µmol
[5]; 1% (v/v), 3 days
  AF yield: 280 µmol
[5]; 1% (v/v), 6 days
  AF yield: 530 µmol
[5]; 1% (v/v), 10 days
  AF yield: 803 µmol
[5]; 5% (v/v), 1 day
  AF yield: 115 µmol
[5]; 5% (v/v), 3 days
  AF yield: 367 µmol
[5]; 5% (v/v), 6 days
  AF yield: 605 µmol
[5]; 5% (v/v), 10 days
  AF yield: 853 µmol
[5]; 5%, after 6 days of incubation
  increase of AF yield: 34%
[5]; 10% (v/v), 1 day
  AF yield: 107 µmol
[5]; 10% (v/v), 3 days
  AF yield: 307 µmol
[5]; 10% (v/v), 6 days
  AF yield: 456 µmol
[5]; 10% (v/v), 10 days
  AF yield: 583 µmol
[5]; tested at 0%, 1%, 5% and 10%
  optimal concentration for AF yield: 5%

## OC[C@H]1O[C@H](O[C@H]2O[C@H](CO)[C@@H](O)[C@H](O)[C@H]2O)[C@H](O)[C@@H](O)[C@@H]1O [Trehalose]
[1]
  degradation (AF detectable on TLC plates): no AF detectable
[2]
  degradation (AF detectable on TLC plates): no AF detectable
[3]
  degradation by the lyase: not able to degrade

Reference: patent US6632643B2, “Use of α-1,4-glucan lyase for preparation of 1,5-D-hydrofructose” (Danisco A/S, priority 1993, dated 2003)
